Assay results published in patent US7476662B2, “Substituted tetracyclic imidazole derivatives, processes for their preparation, pharmaceutical compositions comprising them and their use as a medicine” (Janssen Pharmaceutica N.V., priority 2001, dated 2009).
Blank lines part the entries; values can stand above or below the compound they belong to.

Tests used:
rat brain = assay: Near-infrared spectroscopy (NIRS) of the rat brain: brain hemoglobin concentration and oxygenation after moderate head injury; assay type: in vivo; settings: 24 h after moderate head injury; i.v. 0.5 mg/kg.min 10 min then 0.1 mg/kg.min 45 min
Text: Near-infrared spectroscopy (NIRS) of the rat brain ‘in vivo’ allows to quantify non-invasively saturation of brain haemoglobin with oxygen (HbSat) and total brain haemoglobin concentration ([HbTot]). The latter is a measure for cerebral blood volume (CBV). Changes in the redox state of the mitochondrial enzyme cytochrome oxidase (CytOx), an indicator for tissue oxygenation, can also be monitored.
HbSat is not affected by compound 1 and the racemate (Comp. 1 and Comp. 2).

Sprague-Dawley rats [1] = assay: Changes in relevant physiological variables during treatment after severe CHI in rats; assay type: in vivo, rat; settings: median average change over entire treatment period, % change of initial value; 0.5 mg/kg/min 10 min then 0.1 mg/kg/min 50 min, started 20 min after severe CHI; n = 10
Text: (§1) A clinically relevant rat model for traumatic brain injury was used to test the compounds according to the invention. This model mimics several clinical features of traumatic brain injury, such as increased ICP, decreased cerebral perfusion pressure, morphologic alterations including diffuse axonal injury, neuronal necrosis and contusion, impairment of autoregulation of cerebral blood flow and reduction of brain oxygenation and was applied for screening drugs with ICP-lowering effects. Trauma was induced in intubated, isoflurane anesthetized (1.5% isoflurane in a mixture of 30% O2 and 70% N2O) Sprague-Dawley rats (380-400 g) stereotaxically positioned on a table mounted on 4 springs. A 400 g steel cylinder, protected with a 9 mm diameter silicon disc, was dropped on the unprotected skull from a height of either 70 cm or 50 cm (respectively ‘severe’ and ‘moderate’ head injury). The impact area was centered between bregma and lamda. ICP was recorded using a Codman microsensor probe inserted in the parietal cortex. In both severe and moderate head injuries the ICP increased immediately after trauma and remained elevated for several days. The severe head injury mode was used for the evaluation of pharmacological effects immediately after trauma (screening procedure). When survival and recovery from anesthesia was envisaged, the moderate head injury mode was applied. In pharmacological studies, animals with a pathological ICP between 12.5 and 35 mm Hg were included. The changes in ICP, mean arterial blood pressure (MABP) and cerebral perfusion pressure CPP (=[…]) were expressed as percentage of the initial value at onset of the treatment. Screening procedure: On a weekly base, 4 treated groups of 3 rats were compared with 3 saline treated animals. Since conventional statistical methods require a larger amount of animals, a sequential procedure was used. Sequential methods operate in different stages. At each stage, a group of animals was selected as homogeneous as possible. Animals were randomly allocated to either drugs or saline. The procedure allowed to make the decision of rejecting the drug, accepting the drug as active or to continue with a new group of animals in a next stage. Given the biological relevant level of activity that must be detected, the expected fraction of false positive and negative results was known and fixed. A sequential two-sample grouped rank test was used. […] Despite the variability in the individual data, the procedure consistently accepted reference treatments such as mannitol as active, while controls were rejected.
Treatment was started at 20 min after severe head injury and involved administering a dose of 0.5 mg/kg/min during 10 minutes, followed by 0.1 mg/kg/min during 50 min.

non-traumatised rats = assay: ICP, MABP and CPP in anaesthetised non-traumatised rats; assay type: in vivo, rat; settings: i.v. 0.5 mg/kg/min during 10 minutes, followed by 0.1 mg/kg/min during 50 min
Protocol: The effect of Compound 2, Compound 1 and Racemate (comp. 1 and comp. 2) on ICP, MABP and CPP was tested in anaesthetised non-traumatised rats. The compounds were administered i.v. and the same dose was given as in traumatized rats (0.5 mg/kg/min during 10 minutes, followed by 0.1 mg/kg/min during 50 min).

Sprague-Dawley rats [2] = assay: Continuous infusion of 0.1 mg/kg.min in the rat CHI model; assay type: in vivo
Text: as §1
The significant effect of compound 2 on MABP is much less pronounced when the compound is given at a continuous infusion of 0.1 mg/kg.min. […]

Sprague-Dawley rats [3] = assay: Influence of anaesthesia on effects on ICP and MABP 24 h after moderate trauma; assay type: in vivo, rat; settings: i.v. infusion 0.1 mg/kg.min 30 min, medians, n=6
Text: as §1
The effects of treatment with Compound 2 (i.v. infusion at a dose of 0.1 mg/kg.min during 30 min) at 24 h after moderate trauma were studied using different anesthetics (isoflurane, chloralhydrate, pentobarbital). […]

traumatized rats = assay: Repeated application on elevated ICP in traumatized rats; assay type: in vivo, rat; settings: mannitol i.v. 0.125 g/kg/min, same time windows; FIG. 3
Protocol: Compound 1 was given 2 times with intermittent periods of 20 min at a i.v. dose of 1 mg/kg/min during 10 min, starting a first time 20 min after induction of severe head injury.
Mannitol was given i.v. in the same time windows as Compound 1 at a dose of 0.125 g/kg/min. The control animals received the solvent (containing 10% HP-β-CD, pH 4) only.
This effect is amplified after termination of each, infusion period.

Sprague-Dawley rats [4] = assay: Closed Head Injury (CHI) model, screening procedure (severe head injury); assay type: in vivo, rat
Text: as §1

[5] = chloralhydrate 400 mg/kg i.p. anesthesia
[6] = pentobarbital 60 mg/kg i.p. anesthesia

- melting point: 133.9 °C
Structure (SMILES): Cc1nc2ccccn2c(=O)c1CCN1CCC(C2(C)c3ccccc3CCn3c2nc2ccccc23)CC1 (stereo not drawn) (hydrate or solvate) [Compound 6]

- ETCO2 (%) (Sprague-Dawley rats [1]): 2.4%
- MABP (%) (Sprague-Dawley rats [1]): 0.6%
- Resp. rate(%) (Sprague-Dawley rats [1]): 9.6%
Structure (SMILES): Cc1nc2n(C)c3ccccc3n2c(=O)c1CCN1CCC(C2c3ccccc3CCn3c2nc2ccccc23)CC1Cc1ccccc1 (racemic) [Racemate (comp. 1 and comp. 2), pyrimido[1,2-α]benzimidazol-4(10H)-one, 3-[2-[4-(11,12-dihydro-6H-benzimidazo[2,1-b][3]benzazepin-6-yl)-2-(phenylmethyl)-1-piperidinyl]ethyl]-2,10-dimethyl (E)-2-butenedioate (2:3) hydrate (1:1)]
- effect on saturation of brain haemoglobin with oxygen (HbSat) (rat brain): not affected
- effect on total brain haemoglobin concentration [HbTot] (rat brain): do not have a significant effect
- CPP (%) (Sprague-Dawley rats [1]): 7.5%
- Heart rate(%) (Sprague-Dawley rats [1]): 5.6%
- ICP (%) (Sprague-Dawley rats [1]): −19.1%
- effect on ICP, MABP and CPP (non-traumatised rats): comparable with those obtained in the traumatized animals

- increases in MABP observed (Sprague-Dawley rats [2]; larger increases not observed): ≤ 20%
- median MABP increase at the end of the infusion (Sprague-Dawley rats [2]; n=6): 9%
- ETCO2 (%) (Sprague-Dawley rats [1]): −4.4%
- MABP (%) (Sprague-Dawley rats [1]): 18.8%
- Resp. rate(%) (Sprague-Dawley rats [1]): 6.6%
- MABP increases to % of initial value (Sprague-Dawley rats [3]; [5]): 110 % of initial value
- MABP increase up to % of initial value at the end of the infusion (Sprague-Dawley rats [3]; [6]): 141 % of initial value
Structure (SMILES): Cc1nc2n(C)c3ccccc3n2c(=O)c1CCN1CCC(C2c3ccccc3CCn3c2nc2ccccc23)CC1Cc1ccccc1 (single isomer, unassigned) [Compound 2, (A)[(2α,4β)(A)] 3-[2-(4-(11,12-dihydro-6H-benzimidazo [2,1-b][3]benzazepin-6-yl)-2-(phenylmethyl)-1-piperidinyl]ethyl]-2,10-dimethyl-pyrimido[1,2-a]benzimidazol-4(10H)-one]
- effect on saturation of brain haemoglobin with oxygen (HbSat) (rat brain): small but statistically significant reduction
- effect on total brain haemoglobin concentration [HbTot] (rat brain): do not have a significant effect
- maximal reduction of ICP versus infusion preceded by loading dose of 5 mg/kg over 10 min (Sprague-Dawley rats [2]): comparable
- time required to obtain maximal reduction of ICP (median) (Sprague-Dawley rats [2]): 30 min
- CPP (%) (Sprague-Dawley rats [1]): 24.2%
- Heart rate(%) (Sprague-Dawley rats [1]): −9.6%
- ICP (%) (Sprague-Dawley rats [1]): −15.3%
- effect on ICP, MABP and CPP (non-traumatised rats): comparable with those obtained in the traumatized animals
- ICP decreases to % of initial value (Sprague-Dawley rats [3]; [5]): 75 % of initial value
- ICP decreases to % of initial value (Sprague-Dawley rats [3]; [6]): 64 % of initial value

- melting point: 224.9 °C
Structure (SMILES): Cc1nc2sccn2c(=O)c1CCN1CCC(=C2c3ccccc3CCn3c2nc2ccccc23)CC1 [Compound 5, 6-[2-[4-(11,12-dihydro-6H-benzimidazo [2,1-b][3]benzazepin-6-ylidene)-1-piperidinyl]ethyl]-7-methyl-5H-thiazolo [3,2-a]pyrimidin-5-one]

- melting point: 213.2 °C
Structure (SMILES): Cc1nc2sccn2c(=O)c1CCN1CCC(C2c3ccccc3C(c3ccccc3)Cn3c2nc2ccccc23)CC1Cc1ccccc1 (stereo not drawn) [Compound 7]

- melting point: 178.8 °C
Structure (SMILES): Cc1nc2sccn2c(=O)c1CCN1CCC(=C2c3ccccc3C=Cn3c2nc2ccccc23)CC1 [Compound 8, 6-[2-[4-(6H-benzimidazo[2,1-b][3]benzazepin-6-ylidene)-1-piperidinyl]ethyl]-7-methyl-5H-thiazolo[3,2-a]pyrimidin-5-one]

Structure (SMILES): OC[C@@H](O)[C@@H](O)[C@H](O)[C@H](O)CO [Mannitol]
- effect on ICP during infusion (traumatized rats): lowering of ICP
- effect on blood pressure (traumatized rats): increase in blood pressure during each infusion followed by a decrease in blood pressure after termination of each treatment
- mean reduction of ICP (Sprague-Dawley rats [4]; i.v. mannitol 3 g over 45 min): about 20%
- Decision (based upon sequential statistical evaluation) (Sprague-Dawley rats [4]; severe CHI rats, mannitol infusion of 67 mg/kg/min for 45 min, 5 separate tests): active
- Delta %: average change of the relative ICP from baseline over the treatment period (Sprague-Dawley rats [4]; severe CHI rats, mannitol infusion of 67 mg/kg/min for 45 min, 5 separate tests, listed as Mannitol^1, 67 mg/kg): −21.7%
- Delta %: average change of the relative ICP from baseline over the treatment period (Sprague-Dawley rats [4]; severe CHI rats, mannitol infusion of 67 mg/kg/min for 45 min, 5 separate tests, listed as Mannitol^2, 67 mg/kg): −22.1%
- Delta %: average change of the relative ICP from baseline over the treatment period (Sprague-Dawley rats [4]; severe CHI rats, mannitol infusion of 67 mg/kg/min for 45 min, 5 separate tests, listed as Mannitol^3, 67 mg/kg): −13.0%
- Delta %: average change of the relative ICP from baseline over the treatment period (Sprague-Dawley rats [4]; severe CHI rats, mannitol infusion of 67 mg/kg/min for 45 min, 5 separate tests, listed as Mannitol^4, 67 mg/kg): −19.3%
- Delta %: average change of the relative ICP from baseline over the treatment period (Sprague-Dawley rats [4]; severe CHI rats, mannitol infusion of 67 mg/kg/min for 45 min, 5 separate tests, listed as Mannitol^5, 67 mg/kg): −19.9%
